In brackets after ≈: the same amount, converted by molar mass.
How the values were obtained:
[1] = system: VRE (13B330); experiment: MIC, broth microdilution (CLSI), clinical isolate; assay type: cell-based, vancomycin-resistant enterococcus; conditions: Enterococcus
Excerpt: (§1) 6 standard strains and 3 clinical isolates were used to the preliminary evaluation of in vitro antibacterial activities of oxazolidinone-fluoroquinolone hybrids. For the further evaluation of hybrids OBP-4 and OBP-5, 263 clinical isolates including S. aureus (46), S. haemolyticus(32), S. epidermidis (10), E. faecalis (72), E. faecium (47), S. pneumoniae (13), H. parasuis (34), S. suis (9), and 8 resistant strains including MRSA, MRSE, CIP-resistant S. aureus and S. haemolyticus, VAN and quinolone-resistant S. pneumoniae, LZD-resistant E. faecalis, LZD/VAN and quinolone-resistant E. faecium were collected and tested.
(§2) Susceptibility testing of oxazolidinone-fluoroquinolone hybrids against various bacteria was performed by the broth microdilution method as outlined by the Clinical and Laboratory Standards Institute (CLSI). Three types of media, including cation-adjusted Mueller Hinton broth, Haemophilus Test Medium and cation-adjusted Mueller Hinton broth that contained 3%–5% lysed horse blood, were used to culture the corresponding bacteria. All compounds including comparator drugs were dissolved in an appropriate solvent at a concentration of 2.048 mg/mL and then serially diluted two-fold to provide the required concentrations. A final inoculum of 5 × 10^5 CFU/mL was used and plates were read after incubation for 16–24 h at 35 °C. […] Standard quality control strains (ATCC) were included throughout. Each determination was repeated in triplicate.

[2] = system: P. Aeruginosa (ATCC27853); experiment: MIC, broth microdilution (CLSI), standard strain; assay type: cell-based; conditions: Pseudomonas aeruginosa; P. Aeruginosa (ATCC27853); read-out: MIC
Excerpt: as §1, §2

[3] = system: S. pneumoniae (ATCC49619); experiment: MIC, broth microdilution (CLSI), standard strain; assay type: cell-based; conditions: Streptococcus pneumoniae
Excerpt: as §1, §2

[4] = system: S. aureus (ATCC29213); experiment: MIC, broth microdilution (CLSI), standard strain; assay type: cell-based; conditions: Staphylococcus aureus
Excerpt: as §1, §2

[5] = system: E. coli (ATCC25922); experiment: MIC, broth microdilution (CLSI), standard strain; assay type: cell-based; conditions: Escherichia coli; E. coli (ATCC25922); read-out: MIC
Excerpt: as §1, §2

[6] = system: E. faecalis (ATCC29212); experiment: MIC, broth microdilution (CLSI), standard strain; assay type: cell-based; conditions: Enterococcus faecalis; E. faecalis (ATCC29212); read-out: MIC
Excerpt: as §1, §2

[7] = system: H. influenzae (ATCC49247); experiment: MIC, broth microdilution (CLSI), standard strain; assay type: cell-based; conditions: Haemophilus influenzae
Excerpt: as §1, §2

[8] = system: MRSA (13B262); experiment: MIC, broth microdilution (CLSI), clinical isolate; assay type: cell-based; conditions: Staphylococcus aureus
Excerpt: as §1, §2

[9] = system: S. agalactiae^R (13B317), levofloxacin-resistant S. agalactiae; experiment: MIC, broth microdilution (CLSI), clinical isolate; assay type: cell-based; conditions: Streptococcus agalactiae; levofloxacin-resistant S. agalactiae (13B317)
Excerpt: as §1, §2

[10] = system: S. pneumoniae (13) clinical isolates; experiment: Susceptibility of clinical isolates (MIC); assay type: cell-based, Streptococcus pneumoniae
Method: as §2, with “All compounds including comparator drugs were dissolved in an appropriate solvent at a concentration of 2.048 mg/mL and then serially diluted two-fold to provide the required concentrations.” left out

[11] = system: CIP-resistant S. haemolyticus; experiment: MIC against drug-resistant strain; assay type: cell-based; conditions: Staphylococcus haemolyticus
Method: (§3) 6 standard strains and 3 clinical isolates were used to the preliminary evaluation of in vitro antibacterial activities of oxazolidinone-fluoroquinolone hybrids.
as §2, with “All compounds including comparator drugs were dissolved in an appropriate solvent at a concentration of 2.048 mg/mL and then serially diluted two-fold to provide the required concentrations.” left out

[12] = system: VAN and quinolone-resistant E. faecium; experiment: MIC against drug-resistant strain; assay type: cell-based; conditions: Enterococcus faecium
Method: as §3
as §2, with “All compounds including comparator drugs were dissolved in an appropriate solvent at a concentration of 2.048 mg/mL and then serially diluted two-fold to provide the required concentrations.” left out

[13] = system: MRSA; experiment: MIC against drug-resistant strain; assay type: cell-based; conditions: Staphylococcus aureus
Method: as §3
as §2, with “All compounds including comparator drugs were dissolved in an appropriate solvent at a concentration of 2.048 mg/mL and then serially diluted two-fold to provide the required concentrations.” left out

[14] = system: CIP-resistant S. aureus; experiment: MIC against drug-resistant strain; assay type: cell-based; conditions: Staphylococcus aureus
Method: as §3
as §2, with “All compounds including comparator drugs were dissolved in an appropriate solvent at a concentration of 2.048 mg/mL and then serially diluted two-fold to provide the required concentrations.” left out

[15] = system: LZD and quinolone-resistant E. faecium; experiment: MIC against drug-resistant strain; assay type: cell-based; conditions: Enterococcus faecium
Method: as §3
as §2, with “All compounds including comparator drugs were dissolved in an appropriate solvent at a concentration of 2.048 mg/mL and then serially diluted two-fold to provide the required concentrations.” left out

[16] = system: VAN and quinolone-resistant S. pneumoniae; experiment: MIC against drug-resistant strain; assay type: cell-based; conditions: Streptococcus pneumoniae
Method: as §3
as §2, with “All compounds including comparator drugs were dissolved in an appropriate solvent at a concentration of 2.048 mg/mL and then serially diluted two-fold to provide the required concentrations.” left out

[17] = system: S. aureus (46) clinical isolates; experiment: Susceptibility of clinical isolates (MIC); assay type: cell-based, Staphylococcus aureus
Method: as §2, with “All compounds including comparator drugs were dissolved in an appropriate solvent at a concentration of 2.048 mg/mL and then serially diluted two-fold to provide the required concentrations.” left out

[18] = system: E. faecium (47) clinical isolates; experiment: Susceptibility of clinical isolates (MIC); assay type: cell-based, Enterococcus faecium
Method: as §2, with “All compounds including comparator drugs were dissolved in an appropriate solvent at a concentration of 2.048 mg/mL and then serially diluted two-fold to provide the required concentrations.” left out

[19] = system: MRSE; experiment: MIC against drug-resistant strain; assay type: cell-based, S. epidermidis; conditions: Staphylococcus epidermidis
Method: as §3
as §2, with “All compounds including comparator drugs were dissolved in an appropriate solvent at a concentration of 2.048 mg/mL and then serially diluted two-fold to provide the required concentrations.” left out

[20] = system: S. suis (9) clinical isolates; experiment: Susceptibility of clinical isolates (MIC); assay type: cell-based, Streptococcus suis; conditions: Streptococcus suis
Method: as §2, with “All compounds including comparator drugs were dissolved in an appropriate solvent at a concentration of 2.048 mg/mL and then serially diluted two-fold to provide the required concentrations.” left out

[21] = system: LZD-resistant E. faecalis; experiment: microbe, parasite or virus in culture; assay type: cell-based; conditions: Enterococcus faecalis
Method: as §3
as §2, with “All compounds including comparator drugs were dissolved in an appropriate solvent at a concentration of 2.048 mg/mL and then serially diluted two-fold to provide the required concentrations.” left out

[22] = system: S. haemolyticus (32) clinical isolates; experiment: Susceptibility of clinical isolates (MIC); assay type: cell-based, Staphylococcus haemolyticus
Method: as §2, with “All compounds including comparator drugs were dissolved in an appropriate solvent at a concentration of 2.048 mg/mL and then serially diluted two-fold to provide the required concentrations.” left out

[23] = system: H. parasuis (34) clinical isolates; experiment: Susceptibility of clinical isolates (MIC); assay type: cell-based, Haemophilus parasuis; conditions: Glaesserella parasuis
Method: as §2, with “All compounds including comparator drugs were dissolved in an appropriate solvent at a concentration of 2.048 mg/mL and then serially diluted two-fold to provide the required concentrations.” left out

[24] = system: S. epidermidis (10) clinical isolates; experiment: Susceptibility of clinical isolates (MIC); assay type: cell-based, Staphylococcus epidermidis
Method: as §2, with “All compounds including comparator drugs were dissolved in an appropriate solvent at a concentration of 2.048 mg/mL and then serially diluted two-fold to provide the required concentrations.” left out

C[C@H]1COc2c(N3CCC(O)(COc4ccc(N5C[C@H](CO)OC5=O)cc4F)CC3)c(F)cc3c(=O)c(C(=O)O)cn1c23 [OBP-2]
MIC [1]: 1 mg/L (≈ 1.66 µM) | MIC [2]: 64 mg/L (≈ 106 µM) | MIC [3]: 0.25 mg/L (≈ 0.416 µM) | MIC [4]: 0.25 mg/L (≈ 0.416 µM) | MIC [5]: 4 mg/L (≈ 6.65 µM) | MIC [6]: 1 mg/L (≈ 1.66 µM) | MIC [7]: 0.5 mg/L (≈ 0.831 µM) | MIC [8]: 1 mg/L (≈ 1.66 µM) | MIC [9]: 0.25 mg/L (≈ 0.416 µM)

C[C@H]1COc2c(N3CCC(O)(COc4ccc(N5C[C@H](CO)OC5=O)cc4F)CC3)c(F)c(N)c3c(=O)c(C(=O)O)cn1c23 [OBP-3]
MIC [1]: 2 mg/L (≈ 3.24 µM) | MIC [2]: 128 mg/L (≈ 208 µM) | MIC [3]: 0.5 mg/L (≈ 0.811 µM) | MIC [4]: 2 mg/L (≈ 3.24 µM) | MIC [5]: 64 mg/L (≈ 104 µM) | MIC [6]: 1 mg/L (≈ 1.62 µM) | MIC [7]: 2 mg/L (≈ 3.24 µM) | MIC [8]: 2 mg/L (≈ 3.24 µM) | MIC [9]: 0.5 mg/L (≈ 0.811 µM)

CN1COc2c(N3CC4C(C3)C4Nc3ccc(N4C[C@H](CO)OC4=O)cc3F)c(F)cc3c(=O)c(C(=O)O)cn1c23 (some centres unmarked) [OBP-6]
MIC [1]: 64 mg/L (≈ 112 µM) | MIC [2]: 16 mg/L (≈ 28.1 µM) | MIC [3]: 0.5 mg/L (≈ 0.878 µM) | MIC [4]: 0.062 mg/L (≈ 0.109 µM) | MIC [5]: 1 mg/L (≈ 1.76 µM) | MIC [6]: 4 mg/L (≈ 7.02 µM) | MIC [7]: 0.016 mg/L (≈ 0.0281 µM) | MIC [8]: 64 mg/L (≈ 112 µM) | MIC [9]: 2 mg/L (≈ 3.51 µM)

O=C(O)c1cn(C2CC2)c2cc(N3CC4C(C3)C4Nc3ccc(N4C[C@H](CO)OC4=O)cc3F)c(F)cc2c1=O (some centres unmarked) [OBP-7]
MIC [1]: 128 mg/L (≈ 232 µM) | MIC [2]: 64 mg/L (≈ 116 µM) | MIC [3]: 2 mg/L (≈ 3.62 µM) | MIC [4]: 0.25 mg/L (≈ 0.452 µM) | MIC [5]: 0.5 mg/L (≈ 0.905 µM) | MIC [6]: 1 mg/L (≈ 1.81 µM) | MIC [7]: 0.031 mg/L (≈ 0.0561 µM) | MIC [8]: 128 mg/L (≈ 232 µM) | MIC [9]: 4 mg/L (≈ 7.24 µM)

CN[C@H](CC(C)C)C(=O)N[C@H]1C(=O)N[C@@H](CC(N)=O)C(=O)N[C@H]2C(=O)N[C@H]3C(=O)N[C@H](C(=O)N[C@H](C(=O)O)c4cc(O)cc(O)c4-c4cc3ccc4O)[C@H](O)c3ccc(c(Cl)c3)Oc3cc2cc(c3O[C@@H]2O[C@H](CO)[C@@H](O)[C@H](O)[C@H]2O[C@H]2C[C@](C)(N)[C@H](O)[C@H](C)O2)Oc2ccc(cc2Cl)[C@H]1O [VAN, vancomycin]
CLSI %S (susceptible) ([10]; S. pneumoniae clinical isolates, CLSI criteria): 53.8/- % | MIC50 ([10]; Streptococcus pneumoniae): 1 mg/L (≈ 0.69 µM) | MIC90 ([10]; Streptococcus pneumoniae): 32 mg/L (≈ 22.1 µM) | MIC [11]: 2 mg/L (≈ 1.38 µM) | MIC [12]: 16 mg/L (≈ 11 µM) | MIC [13]: 1 mg/L (≈ 0.69 µM) | MIC [14]: 0.25 mg/L (≈ 0.173 µM) | MIC [15]: 4 mg/L (≈ 2.76 µM) | MIC [16]: > 32 mg/L | CLSI %S (susceptible) ([17]; S. aureus clinical isolates, CLSI criteria): 100.0/- % | MIC50 ([17]; Staphylococcus aureus): 0.5 mg/L (≈ 0.345 µM) | MIC90 ([17]; Staphylococcus aureus): 0.5 mg/L (≈ 0.345 µM) | MIC ([17]; Staphylococcus aureus, read-out: MIC Range): 0.25 to 0.5 mg/L (≈ 0.173 to 0.345 µM) | CLSI %S (susceptible) ([18]; E. faecium clinical isolates, CLSI criteria): 100.0/- % | MIC Range ([18]; E. faecium, 47 clinical isolates): 0.5 to 4 mg/L | MIC50 ([18]; Enterococcus faecium): 2 mg/L (≈ 1.38 µM) | MIC90 ([18]; Enterococcus faecium): 4 mg/L (≈ 2.76 µM) | MIC [19]: 1 mg/L (≈ 0.69 µM) | MIC50 [20]: 0.25 mg/L (≈ 0.173 µM) | MIC90 [20]: 2 mg/L (≈ 1.38 µM) | MIC ([20]; read-out: MIC Range): 0.125 to 2 mg/L (≈ 0.0863 to 1.38 µM) | MIC [21]: 2 mg/L (≈ 1.38 µM) | CLSI %S (susceptible) ([22]; S. haemolyticus clinical isolates, CLSI criteria): 96.2/- % | MIC50 ([22]; Staphylococcus haemolyticus): 0.5 mg/L (≈ 0.345 µM) | MIC90 ([22]; Staphylococcus haemolyticus): 2 mg/L (≈ 1.38 µM) | MIC ([22]; Staphylococcus haemolyticus, read-out: MIC Range): 0.0625 to 4 mg/L (≈ 0.0431 to 2.76 µM) | MIC50 [23]: 8 mg/L (≈ 5.52 µM) | MIC90 [23]: > 32 mg/L | CLSI %S (susceptible) ([24]; S. epidermidis clinical isolates, CLSI criteria): 100.0/- % | MIC50 ([24]; Staphylococcus epidermidis): 1 mg/L (≈ 0.69 µM) | MIC90 ([24]; Staphylococcus epidermidis): 2 mg/L (≈ 1.38 µM) | MIC ([24]; Staphylococcus epidermidis, read-out: MIC Range): 1 to 2 mg/L (≈ 0.69 to 1.38 µM)

From paper PMC6514978, “Synthesis, Antibacterial Activities, Mode of Action and Acute Toxicity Studies of New Oxazolidinone-Fluoroquinolone Hybrids” (Molecules, 2019)
